In article PMC12439480, “Dimeric CCK2R radiotheranostic tracers synergize with mTOR inhibition for enhanced tumor therapy” (Theranostics, 2025):
Numbered stars: 1 amine (or outer) side, 2 acyl side, 3 side chain; on linkers, the order of the positions; unused ones are H or OH. Square brackets hold non-standard residues; d marks the D form. Side chains are listed from the residue outwards. Peptide text beside a SMILES is read from it. * marks the point of attachment. DOTA = O=C(O)CN1CCN(CC(=O)O)CCN(CC(=O)*)CCN(CC(=O)O)CC1; d(γGlu) = O=C(O)[C@@H](CCC(=O)[*:2])N[*:1]; 1Nal = N[C@@H](Cc1cccc2ccccc12)C(=O)O; NMeNle = CCCC[C@H](NC)C(=O)O; PEG4 = NCCOCCOCCOCCOCCC(=O)O

Test: Ex vivo biodistribution of 177Lu-labeled compound
Design: species or system BALB/c nude mice
Details: mouse, in vivo
Procedure: To evaluate the biodistribution of [^177Lu]Lu-DOTA-CCK2R-dimer, AR42J tumor-bearing mice received intravenous (i.v.) injections of 3.7 MBq (≈ 120 pmol) of [^177Lu]Lu-DOTA-CCK2R-dimer (dissolved in 200 μL of saline; n = 3/group), and Mice were sacrificed at 1, 4, 24, 48, 72, and 96 h post-injection. The tissues of interest were excised, weighed, and analyzed for radioactivity using a γ-counter.
All animal studies were approved by the Ethics Committee of Fudan University Shanghai Cancer Center (No. FUSCC-IACUC- S2023- 0003). Five-week-old female BALB/c nude mice were purchased from Shanghai SLAC Laboratory Animal
Company. To establish cell-derived xenograft (CDX) models, 1 × 10⁶ AR42J cells (100 μL) were subcutaneously inoculated into the right shoulder of each mouse. […]
Radioactivity levels were measured using a gamma counter, with decay correction applied based on the injection time. The percentage of injected dose per gram of tissue (%ID/g) was calculated for each time point. […]

CCCC[C@@H](C(=O)N[C@@H](CC(=O)O)C(=O)N[C@@H](Cc1cccc2ccccc12)C(N)=O)N(C)C(=O)[C@H](Cc1c[nH]c2ccccc12)NC(=O)CCOCCOCCOCCOCCNC(=O)CC[C@@H](NC(=O)CC[C@H](NC(=O)CN1CCN(CC(=O)O)CCN(CC(=O)O)CCN(CC(=O)O)CC1)C(=O)N[C@H](CCC(=O)NCCOCCOCCOCCOCCC(=O)N[C@@H](Cc1c[nH]c2ccccc12)C(=O)N(C)[C@@H](CCCC)C(=O)N[C@@H](CC(=O)O)C(=O)N[C@@H](Cc1cccc2ccccc12)C(N)=O)C(=O)O)C(=O)O [[177Lu]Lu-DOTA-CCK2R-dimer, metal not drawn] ({DOTA}-E([d(γGlu)-PEG4-Trp-NMeNle-Asp-1Nal-NH2])[d(γGlu)][PEG4]W[NMeNle]D[1Nal]-NH2)
tissue uptake at 48 h (Bladder uptake): 0.03 ± 0.01 %ID/g | tissue uptake at 72 h (Bladder uptake): 0.06 ± 0.03 %ID/g | tissue uptake at 96 h (Bladder uptake): 0.1 ± 0.05 %ID/g | tissue uptake at 1 h (Blood uptake): 6.93 ± 1.84 %ID/g | tissue uptake at 4 h (Blood uptake): 1.19 ± 0.3 %ID/g | tissue uptake at 24 h (Blood uptake): 0.05 ± 0.01 %ID/g | tissue uptake at 48 h (Blood uptake): 0.02 ± 0.01 %ID/g | tissue uptake at 72 h (Blood uptake): 0.002 ± 0.0005 %ID/g | tissue uptake at 96 h (Blood uptake): 0.008 ± 0.007 %ID/g | tissue uptake at 1 h (Bone uptake): 0.65 ± 0.27 %ID/g | tissue uptake at 4 h (Bone uptake): 0.35 ± 0.19 %ID/g | tissue uptake at 24 h (Bone uptake): 0.04 ± 0.02 %ID/g | tissue uptake at 48 h (Bone uptake): 0.004 ± 0.001 %ID/g | tissue uptake at 72 h (Bone uptake): 0.03 ± 0.02 %ID/g | tissue uptake at 96 h (Bone uptake): 0.02 ± 0.01 %ID/g | tissue uptake at 1 h (Brain uptake): 0.14 ± 0.01 %ID/g | tissue uptake at 4 h (Brain uptake): 0.03 ± 0.01 %ID/g | tissue uptake at 24 h (Brain uptake): 0.003 ± 0.002 %ID/g | tissue uptake at 48 h (Brain uptake): 0.003 ± 0.002 %ID/g | tissue uptake at 72 h (Brain uptake): 0.004 ± 0.003 %ID/g | tissue uptake at 96 h (Brain uptake): 0.006 ± 0.002 %ID/g | tissue uptake at 1 h (Heart uptake): 1.29 ± 0.41 %ID/g | tissue uptake at 4 h (Heart uptake): 0.67 ± 0.34 %ID/g | tissue uptake at 24 h (Heart uptake): 0.05 ± 0.03 %ID/g | tissue uptake at 48 h (Heart uptake): 0.02 ± 0.02 %ID/g | tissue uptake at 72 h (Heart uptake): 0.02 ± 0.008 %ID/g | tissue uptake at 96 h (Heart uptake): 0.03 ± 0.01 %ID/g | tissue uptake at 1 h (Kidney uptake): 8.92 ± 1.05 %ID/g | tissue uptake at 4 h (Kidney uptake): 6.79 ± 1.58 %ID/g | tissue uptake at 24 h (Kidney uptake): 3.43 ± 0.84 %ID/g | tissue uptake at 48 h (Kidney uptake): 1.59 ± 1 %ID/g | tissue uptake at 72 h (Kidney uptake): 1.6 ± 0.39 %ID/g | tissue uptake at 96 h (Kidney uptake): 1 ± 0.5 %ID/g | tissue uptake at 1 h (Large intestine uptake): 1.14 ± 0.38 %ID/g | tissue uptake at 4 h (Large intestine uptake): 0.61 ± 0.03 %ID/g | tissue uptake at 24 h (Large intestine uptake): 0.07 ± 0.01 %ID/g | tissue uptake at 48 h (Large intestine uptake): 0.05 ± 0.02 %ID/g | tissue uptake at 72 h (Large intestine uptake): 0.04 ± 0.03 %ID/g | tissue uptake at 96 h (Large intestine uptake): 0.05 ± 0.03 %ID/g | tissue uptake at 1 h (Liver uptake): 4.44 ± 1.8 %ID/g | tissue uptake at 4 h (Liver uptake): 3.42 ± 0.75 %ID/g | tissue uptake at 24 h (Liver uptake): 0.61 ± 0.11 %ID/g | tissue uptake at 48 h (Liver uptake): 0.58 ± 0.16 %ID/g | tissue uptake at 72 h (Liver uptake): 0.37 ± 0.05 %ID/g | tissue uptake at 96 h (Liver uptake): 0.42 ± 0.11 %ID/g | tissue uptake at 1 h (Lung uptake): 2.4 ± 0.05 %ID/g | tissue uptake at 4 h (Lung uptake): 1.06 ± 0.39 %ID/g | tissue uptake at 24 h (Lung uptake): 0.04 ± 0.03 %ID/g | tissue uptake at 48 h (Lung uptake): 0.02 ± 0.01 %ID/g | tissue uptake at 72 h (Lung uptake): 0.01 ± 0.01 %ID/g | tissue uptake at 96 h (Lung uptake): 0.02 ± 0.005 %ID/g | tissue uptake at 1 h (Muscle uptake): 0.36 ± 0.1 %ID/g | tissue uptake at 4 h (Muscle uptake): 0.16 ± 0.17 %ID/g | tissue uptake at 24 h (Muscle uptake): 0.01 ± 0.01 %ID/g | tissue uptake at 48 h (Muscle uptake): 0.007 ± 0.003 %ID/g | tissue uptake at 72 h (Muscle uptake): 0.007 ± 0.002 %ID/g | tissue uptake at 96 h (Muscle uptake): 0.006 ± 0.004 %ID/g | tissue uptake at 1 h (Small intestine uptake): 1.45 ± 0.39 %ID/g | tissue uptake at 4 h (Small intestine uptake): 0.58 ± 0.31 %ID/g | tissue uptake at 24 h (Small intestine uptake): 0.06 ± 0.04 %ID/g | tissue uptake at 48 h (Small intestine uptake): 0.06 ± 0.01 %ID/g | tissue uptake at 72 h (Small intestine uptake): 0.02 ± 0.01 %ID/g | tissue uptake at 96 h (Small intestine uptake): 0.04 ± 0.03 %ID/g | tissue uptake at 1 h (Spleen uptake): 2.62 ± 1.02 %ID/g | tissue uptake at 4 h (Spleen uptake): 2.23 ± 0.32 %ID/g | tissue uptake at 24 h (Spleen uptake): 0.15 ± 0.08 %ID/g | tissue uptake at 48 h (Spleen uptake): 0.02 ± 0.01 %ID/g | tissue uptake at 72 h (Spleen uptake): 0.05 ± 0.03 %ID/g | tissue uptake at 96 h (Spleen uptake): 0.15 ± 0.09 %ID/g | tissue uptake at 1 h (Stomach uptake): 3.88 ± 0.66 %ID/g | tissue uptake at 4 h (Stomach uptake): 3.05 ± 0.6 %ID/g | tissue uptake at 24 h (Stomach uptake): 1.07 ± 0.28 %ID/g | tissue uptake at 48 h (Stomach uptake): 1.04 ± 0.17 %ID/g | tissue uptake at 72 h (Stomach uptake): 0.26 ± 0.11 %ID/g | tissue uptake at 96 h (Stomach uptake): 0.24 ± 0.3 %ID/g | tissue uptake at 1 h (Tumor uptake): 19.2 ± 8.43 %ID/g | tissue uptake at 4 h (Tumor uptake): 14.7 ± 2.83 %ID/g | tissue uptake at 24 h (Tumor uptake): 6.12 ± 1.45 %ID/g | tissue uptake at 48 h (Tumor uptake): 4.32 ± 0.75 %ID/g | tissue uptake at 72 h (Tumor uptake): 2.01 ± 0.47 %ID/g | tissue uptake at 96 h (Tumor uptake): 1.1 ± 0.04 %ID/g
